According to patent US20240158348A1, “HERBICIDAL CYCLIC AMIDES N-SUBSTITUTED WITH A HALOALKYLSULFONYLANILIDE GROUP” (FMC Corporation, priority 2021, published 2024):

Assays:
Assay type in all cases: in vivo
[1] = tested on: wheat (Triticum aestivum); assay: Test C postemergence, wheat; details: for Wheat plant response rating: 31 g ai/ha Postemergence, visual injury, 0 to 100 scale (0 no effect, 100 complete control); for Plant response rating (0 to 100 scale), Wheat: 125 g ai/ha Postemergence, 0 is no effect, 100 is complete control
In short: (§1)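 Plants grown in a sand and loam soil blend received the formulated test chemicals either as a preemergence soil-directed spray or postemergence at 2 to 10 cm height. After 10 or 12 greenhouse days, injury was assessed visually, with 100 meaning complete control.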

[2] = tested on: ragweed (common ragweed, Ambrosia artemisiifolia); assay: Test C preemergence, ragweed; details: 0 is no effect, 100 is complete control
In short: (§2)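 Pre: soil sprayed at seeding. Post: seedlings treated at 1–2 leaves (2–10 cm). Vehicle non-phytotoxic solvent mix with surfactant; loam–sand medium; greenhouse; visual injury read at 10 or 12 days, scale 0–100.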

[3] = tested on: foxtail, giant (giant foxtail, Setaria faberi); assay: Test C postemergence, giant foxtail; details: for Foxtail, Giant plant response rating: 31 g ai/ha Postemergence, visual injury, 0 to 100 scale (0 no effect, 100 complete control); for Plant response rating (0 to 100 scale), Foxtail, Giant: 125 g ai/ha Postemergence, 0 is no effect, 100 is complete control
[4] = tested on: blackgrass (Alopecurus myosuroides); assay: Test C postemergence, blackgrass; details: 31 g ai/ha Postemergence; visual injury, 0 to 100 scale (0 no effect, 100 complete control)
In short: as §1

[5] = tested on: soybean (Glycine max); assay: Test C postemergence, soybean; details: for Soybean plant response rating: 31 g ai/ha Postemergence, visual injury, 0 to 100 scale (0 no effect, 100 complete control); for Plant response rating (0 to 100 scale), Soybean: 125 g ai/ha Postemergence, 0 is no effect, 100 is complete control
[6] = tested on: goosegrass (Eleusine indica); assay: Test C preemergence, goosegrass; details: 0 is no effect, 100 is complete control
In short: as §2

[7] = tested on: corn (Zea mays); assay: Test C preemergence, corn; details: 0 is no effect, 100 is complete control
In short: as §2

[8] = tested on: corn (Zea mays); assay: Test C postemergence, corn; details: for Corn plant response rating: 31 g ai/ha Postemergence, visual injury, 0 to 100 scale (0 no effect, 100 complete control); for Plant response rating (0 to 100 scale), Corn: 125 g ai/ha Postemergence, 0 is no effect, 100 is complete control

Structure (SMILES) | Wheat plant response rating [1] | Plant response rating (0 to 100 scale), Wheat [1] | Plant response rating (0 to 100 scale), Ragweed ([2]; 31 g ai/ha Preemergence) | Plant response rating (0 to 100 scale), Ragweed ([2]; 125 g ai/ha Preemergence) | Foxtail, Giant plant response rating [3] | Plant response rating (0 to 100 scale), Foxtail, Giant [3] | Blackgrass plant response rating [4] | Soybean plant response rating [5] | Plant response rating (0 to 100 scale), Soybean [5] | Plant response rating (0 to 100 scale), Goosegrass ([6]; 31 g ai/ha Preemergence) | Plant response rating (0 to 100 scale), Goosegrass ([6]; 125 g ai/ha Preemergence) | Plant response rating (0 to 100 scale), Corn ([7]; 31 g ai/ha Preemergence) | Plant response rating (0 to 100 scale), Corn ([7]; 125 g ai/ha Preemergence) | Corn plant response rating [8] | Plant response rating (0 to 100 scale), Corn [8]
COC(=O)N(c1cc(N2CCC(OC3CC3)C2=O)c(C)cc1C)S(=O)(=O)C(F)(F)F (stereo not drawn) [Compound 16] | 0 | 0 | 0 | 0 | 0 | 0 | 0 | 40 | 60 | 0 | 0 | 0 | 0 | 0 | 0
CC(=O)N(c1cc(N2CCC(OC3CC3)C2=O)c(C)cc1C)S(=O)(=O)C(F)(F)F (stereo not drawn) [Compound 17] | 70 | 70 | 80 | 90 | 90 | 90 | 70 | 60 | 80 | 100 | 100 | 70 | 90 | 90 | 90
Cc1cc(C)c(N(C(=O)OC(C)C)S(=O)(=O)C(F)(F)F)cc1N1CCC(OC2CC2)C1=O (stereo not drawn) [Compound 18] | 0 | 0 | 0 | 0 | 0 | 0 | 0 | 50 | 80 | 0 | 0 | 0 | 0 | 0 | 0
CCOC(=O)N(c1cc(N2CCC(OC3CC3)C2=O)c(C)cc1C)S(=O)(=O)C(F)(F)F (stereo not drawn) [Compound 19] | 0 | 10 | 0 | 10 | 0 | 20 | 0 | 80 | 80 | 0 | 70 | 0 | 0 | 0 | 20
CCCC(=O)OCN(c1cc(N2CCC(OC3CC3)C2=O)c(C)cc1C)S(=O)(=O)C(F)(F)F (stereo not drawn) [Compound 20] | 70 | 70 | 60 | 90 | 80 | 90 | 90 | 60 | 70 | 100 | 100 | 60 | 90 | 90 | 90
Cc1cc(C)c(N(C(=O)OCC(C)C)S(=O)(=O)C(F)(F)F)cc1N1CCC(OC2CC2)C1=O (stereo not drawn) [Compound 21] | 10 | 50 | 40 | 80 | 40 | 90 | 40 | 60 | 60 | 90 | 100 | 20 | 90 | 90 | 90
Cc1cc(C)c(N2CCC(OCC3CC3)C2=O)cc1NS(=O)(=O)C(F)(F)F (stereo not drawn) [Compound 22] | 50 | 60 | 50 | 100 | 20 | 60 | 20 | 60 | 70 | 100 | 100 | 90 | 90 | 50 | 90
